Results as given in ChEMBL document CHEMBL1201862, “PubChem BioAssay data set” (2004).
One block for each compound: values may come before it. Calls of active or inactive are those of the source.

Tests used:
[1] = molecular target: T1, High affinity choline transporter 1 (Homo sapiens, UniProt Q9GZV3); test: human choline transporter blockers, potency – cell-based, 5-point CRC, membrane potential dye, dose response (AID 504840); assay type: functional
T1 sequence (Q9GZV3 whole entry): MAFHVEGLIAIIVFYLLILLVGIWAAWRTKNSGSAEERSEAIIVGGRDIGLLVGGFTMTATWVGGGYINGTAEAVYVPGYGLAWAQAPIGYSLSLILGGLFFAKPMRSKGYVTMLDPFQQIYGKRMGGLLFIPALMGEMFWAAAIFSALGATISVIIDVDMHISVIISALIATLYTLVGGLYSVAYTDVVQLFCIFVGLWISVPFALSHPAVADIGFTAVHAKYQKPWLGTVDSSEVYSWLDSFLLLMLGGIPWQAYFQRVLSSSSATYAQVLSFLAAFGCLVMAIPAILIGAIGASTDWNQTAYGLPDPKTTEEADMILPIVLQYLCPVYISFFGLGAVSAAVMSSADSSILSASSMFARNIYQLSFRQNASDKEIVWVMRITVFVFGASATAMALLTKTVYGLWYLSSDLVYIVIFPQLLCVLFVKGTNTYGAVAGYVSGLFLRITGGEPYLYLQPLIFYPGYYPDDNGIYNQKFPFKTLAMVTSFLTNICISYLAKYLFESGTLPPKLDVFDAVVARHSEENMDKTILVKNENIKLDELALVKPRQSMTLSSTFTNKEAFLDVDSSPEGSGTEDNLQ

[2] = molecular target: T1, High affinity choline transporter 1; test: human choline transporter blockers, potency – cell-based, 10-point CRC, membrane potential dye, dose response (AID 588401); assay type: functional;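 note: membrane potential dye fluorescence of choline-evoked depolarization via CHT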
[3] = Trypanosoma cruzi growth suppression in host cells – NIH3T3 host cells, beta-gal luminescence, confirmation (AID 2044); assay type: functional, cell-based;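 note: intracellular parasites grown in NIH/3T3 mouse fibroblasts as host cells; luminescent beta-galactosidase reporter signal from transgenic T. cruzi replicating inside host cells; inhibitors lower the luminescence signal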
[4] = NIH3T3 cell viability loss – ATP luminescence, mouse fibroblasts, counter-screen, dose response (AID 2010); assay type: functional, cell-based;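 note: cells exposed to compound for about 90 hours before reading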
Protein Wnt-3a = Protein Wnt-3a (Mus musculus, UniProt P27467); test: antagonism of Wnt3a pathway luciferase reporter – Wnt-LIGHT cells, luminescence, selectivity assay for Gli-SUFU antagonist project, dose response (AID 651570); assay type: functional; conditions: read-out: IC50_Mean;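 note: Wnt-LIGHT reporter cells stimulated with conditioned medium from Wnt3a-producing cells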
[5] = molecular target: Potassium voltage-gated channel subfamily KQT member 2 (Rattus norvegicus, UniProt O88943); test: blockers of KCNQ2 channel current – cell-based, automated electrophysiology, set II, rat KCNQ2, dose response (AID 588637); assay type: functional
[6] = molecular target: Luciferin 4-monooxygenase (Photinus pyralis, UniProt P08659); test: inhibition of purified Photinus pyralis luciferase – biochemical, luminescence, dose response (AID 1891)
[7] = Luminescence Cell-Based Dose Confirmation HTS to Identify Inhibitors of Platelet Dense Granule Release. [Related pubchem assays: 1663 (Primary HTS), 1678 (Summary of Project)]; assay type: functional
[8] = molecular target: T2, Apoptotic protease-activating factor 1 (Homo sapiens, UniProt O14727); test: SAR analysis of small molecule Activators of Apaf-1 in a Fluorescent assay.; assay type: functional; conditions: read-out: EC50_Mean;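 note: caspase-3 cleavage of fluorogenic Rh110 DEVD substrate downstream of apoptosome activation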
T2 sequence (O14727 whole entry): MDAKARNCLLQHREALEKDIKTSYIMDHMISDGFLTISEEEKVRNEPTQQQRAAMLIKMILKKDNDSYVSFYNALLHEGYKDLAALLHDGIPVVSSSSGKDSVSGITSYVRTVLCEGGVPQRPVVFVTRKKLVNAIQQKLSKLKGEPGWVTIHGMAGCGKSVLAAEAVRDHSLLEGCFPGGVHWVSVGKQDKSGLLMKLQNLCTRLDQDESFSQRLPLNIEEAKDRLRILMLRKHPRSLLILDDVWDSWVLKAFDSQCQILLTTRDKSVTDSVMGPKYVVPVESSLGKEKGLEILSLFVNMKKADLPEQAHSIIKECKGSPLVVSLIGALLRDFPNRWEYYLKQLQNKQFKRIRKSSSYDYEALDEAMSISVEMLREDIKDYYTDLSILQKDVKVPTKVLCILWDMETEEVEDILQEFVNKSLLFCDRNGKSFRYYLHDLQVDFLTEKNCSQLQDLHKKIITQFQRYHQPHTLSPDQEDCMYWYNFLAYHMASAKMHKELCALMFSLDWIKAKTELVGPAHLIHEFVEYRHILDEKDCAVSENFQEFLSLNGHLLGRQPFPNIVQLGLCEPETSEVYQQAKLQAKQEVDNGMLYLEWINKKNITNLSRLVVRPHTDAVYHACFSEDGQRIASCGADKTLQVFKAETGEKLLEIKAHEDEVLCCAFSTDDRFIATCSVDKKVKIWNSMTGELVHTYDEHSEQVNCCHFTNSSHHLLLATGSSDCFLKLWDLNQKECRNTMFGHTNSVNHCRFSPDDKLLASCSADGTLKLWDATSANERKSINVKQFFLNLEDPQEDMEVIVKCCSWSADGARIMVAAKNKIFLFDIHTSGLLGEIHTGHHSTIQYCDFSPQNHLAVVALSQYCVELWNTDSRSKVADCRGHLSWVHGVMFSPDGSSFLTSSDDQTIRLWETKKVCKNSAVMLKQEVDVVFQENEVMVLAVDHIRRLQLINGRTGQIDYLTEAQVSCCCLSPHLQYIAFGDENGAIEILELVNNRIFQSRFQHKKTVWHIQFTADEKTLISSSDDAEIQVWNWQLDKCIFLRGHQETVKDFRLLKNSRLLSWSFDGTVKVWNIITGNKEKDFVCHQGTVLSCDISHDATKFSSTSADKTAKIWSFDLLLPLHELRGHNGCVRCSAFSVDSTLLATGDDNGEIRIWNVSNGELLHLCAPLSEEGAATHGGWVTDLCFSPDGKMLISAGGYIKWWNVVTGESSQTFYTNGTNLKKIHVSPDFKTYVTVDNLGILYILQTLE

[9] = molecular target: T1, High affinity choline transporter 1; test: human choline transporter potentiators, potency – cell-based, 10-point CRC, membrane potential dye, dose response (AID 602376); assay type: functional
[10] = molecular target: Melanin-concentrating hormone receptor 1 (Homo sapiens, UniProt Q99705); test: Late-stage fluorescence-based counterscreen for antagonists of the G-protein coupled receptor 7 (GPR7): cell-based dose response assay to identify antagonists of the melanin-concentrating hormone receptor 1 (MCHR1) Set 5.; assay type: functional
[11] = molecular target: T3, Sentrin-specific protease 8 (Homo sapiens, UniProt Q96LD8); test: inhibition of human SENP8 cleavage activity – biochemical, luminescence, SAR follow-up (AID 504501); assay type: functional
T3 sequence (Q96LD8 whole entry): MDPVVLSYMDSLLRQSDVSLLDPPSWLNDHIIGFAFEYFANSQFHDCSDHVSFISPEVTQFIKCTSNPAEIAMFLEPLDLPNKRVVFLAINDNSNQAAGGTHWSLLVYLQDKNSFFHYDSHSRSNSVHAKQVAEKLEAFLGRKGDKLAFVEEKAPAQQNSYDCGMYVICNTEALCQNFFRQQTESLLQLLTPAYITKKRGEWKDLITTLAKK

Caspase-3 = molecular target: T4, Caspase-3 (Homo sapiens, UniProt P42574); test: SAR Analysis of small molecule inhibitors of Sentrin-specific proteases (SENPs) using a Caspase-3 Selectivity assay. [Related pubchem assays (depositor defined):AID2540, AID2599, AID434973, AID489001]; assay type: functional
T4 sequence (P42574 whole entry): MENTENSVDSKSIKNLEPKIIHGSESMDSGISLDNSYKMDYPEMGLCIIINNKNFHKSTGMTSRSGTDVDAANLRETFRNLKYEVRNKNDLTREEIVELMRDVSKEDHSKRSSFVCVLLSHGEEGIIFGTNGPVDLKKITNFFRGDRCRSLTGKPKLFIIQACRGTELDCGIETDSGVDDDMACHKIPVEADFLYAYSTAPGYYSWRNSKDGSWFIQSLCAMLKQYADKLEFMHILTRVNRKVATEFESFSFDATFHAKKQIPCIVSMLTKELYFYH

[12] = molecular target: T5, Sentrin-specific protease 6 (Homo sapiens, UniProt Q9GZR1); test: SAR Analysis of small molecule inhibitors of Sentrin-specific protease 6 (SENP6) using a Luminescent assay. [Related pubchem assays (depositor defined):AID2582, AID2599]; assay type: functional
T5 sequence (Q9GZR1 whole entry): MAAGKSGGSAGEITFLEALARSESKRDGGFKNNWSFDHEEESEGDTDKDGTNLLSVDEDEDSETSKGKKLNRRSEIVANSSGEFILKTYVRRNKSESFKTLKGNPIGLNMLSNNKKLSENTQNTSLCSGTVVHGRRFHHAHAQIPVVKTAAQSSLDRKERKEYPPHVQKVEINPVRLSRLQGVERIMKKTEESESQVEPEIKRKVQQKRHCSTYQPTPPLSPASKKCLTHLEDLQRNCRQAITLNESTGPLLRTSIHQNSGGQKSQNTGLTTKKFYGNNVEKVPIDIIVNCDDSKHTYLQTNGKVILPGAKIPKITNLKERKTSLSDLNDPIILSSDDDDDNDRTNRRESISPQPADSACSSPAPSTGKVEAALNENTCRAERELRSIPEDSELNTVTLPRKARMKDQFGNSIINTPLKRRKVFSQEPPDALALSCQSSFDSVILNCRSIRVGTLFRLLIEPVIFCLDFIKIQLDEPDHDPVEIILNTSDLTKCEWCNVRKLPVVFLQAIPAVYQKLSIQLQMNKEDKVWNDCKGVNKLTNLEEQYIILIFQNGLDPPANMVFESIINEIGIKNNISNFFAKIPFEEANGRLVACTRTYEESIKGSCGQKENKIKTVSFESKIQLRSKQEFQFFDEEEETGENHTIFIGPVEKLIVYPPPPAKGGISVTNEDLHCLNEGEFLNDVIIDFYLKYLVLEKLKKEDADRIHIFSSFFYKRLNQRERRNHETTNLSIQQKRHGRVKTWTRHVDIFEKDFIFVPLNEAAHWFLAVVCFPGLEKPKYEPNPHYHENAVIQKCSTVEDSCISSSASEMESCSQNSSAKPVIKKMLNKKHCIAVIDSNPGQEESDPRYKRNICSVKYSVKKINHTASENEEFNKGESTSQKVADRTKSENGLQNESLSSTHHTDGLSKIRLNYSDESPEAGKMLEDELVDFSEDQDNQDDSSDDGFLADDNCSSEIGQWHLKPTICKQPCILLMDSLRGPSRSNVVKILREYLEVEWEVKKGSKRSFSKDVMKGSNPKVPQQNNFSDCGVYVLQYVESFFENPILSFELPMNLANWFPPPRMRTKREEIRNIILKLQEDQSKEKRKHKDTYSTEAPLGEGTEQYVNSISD

[13] = molecular target: T6, Sentrin-specific protease 7 (Homo sapiens, UniProt Q9BQF6); test: inhibition of human SENP7 cleavage activity – biochemical, luminescence, SAR follow-up (AID 504497); assay type: functional
T6 sequence (Q9BQF6 whole entry): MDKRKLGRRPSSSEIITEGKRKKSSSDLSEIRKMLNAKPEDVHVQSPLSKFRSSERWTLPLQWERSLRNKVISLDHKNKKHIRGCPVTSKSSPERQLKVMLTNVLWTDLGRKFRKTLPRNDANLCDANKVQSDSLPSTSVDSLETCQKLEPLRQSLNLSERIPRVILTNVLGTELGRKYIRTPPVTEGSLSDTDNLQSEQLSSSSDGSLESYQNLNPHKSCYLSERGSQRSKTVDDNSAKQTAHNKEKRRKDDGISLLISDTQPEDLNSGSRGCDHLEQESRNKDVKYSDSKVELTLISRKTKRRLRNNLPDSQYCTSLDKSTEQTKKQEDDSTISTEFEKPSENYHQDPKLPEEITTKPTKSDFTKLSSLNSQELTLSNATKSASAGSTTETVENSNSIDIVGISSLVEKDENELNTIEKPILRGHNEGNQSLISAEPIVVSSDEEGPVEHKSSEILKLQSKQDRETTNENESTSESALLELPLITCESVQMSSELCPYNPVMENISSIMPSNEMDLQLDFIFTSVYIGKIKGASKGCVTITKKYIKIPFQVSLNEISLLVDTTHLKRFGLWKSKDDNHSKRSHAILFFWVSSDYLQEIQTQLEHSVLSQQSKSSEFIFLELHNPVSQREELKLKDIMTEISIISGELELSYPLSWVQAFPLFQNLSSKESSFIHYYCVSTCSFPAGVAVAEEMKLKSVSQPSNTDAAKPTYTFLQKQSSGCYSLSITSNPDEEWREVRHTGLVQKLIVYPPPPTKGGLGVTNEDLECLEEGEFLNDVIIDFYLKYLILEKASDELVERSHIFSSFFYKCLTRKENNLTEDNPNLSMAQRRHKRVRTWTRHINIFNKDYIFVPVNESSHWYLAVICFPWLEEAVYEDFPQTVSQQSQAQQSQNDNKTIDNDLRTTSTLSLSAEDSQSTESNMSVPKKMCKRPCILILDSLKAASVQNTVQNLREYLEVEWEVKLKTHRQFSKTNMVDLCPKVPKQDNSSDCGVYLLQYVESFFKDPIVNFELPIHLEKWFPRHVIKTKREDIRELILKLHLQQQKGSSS

Luciferin 4-monooxygenase, sequence (P08659 whole entry): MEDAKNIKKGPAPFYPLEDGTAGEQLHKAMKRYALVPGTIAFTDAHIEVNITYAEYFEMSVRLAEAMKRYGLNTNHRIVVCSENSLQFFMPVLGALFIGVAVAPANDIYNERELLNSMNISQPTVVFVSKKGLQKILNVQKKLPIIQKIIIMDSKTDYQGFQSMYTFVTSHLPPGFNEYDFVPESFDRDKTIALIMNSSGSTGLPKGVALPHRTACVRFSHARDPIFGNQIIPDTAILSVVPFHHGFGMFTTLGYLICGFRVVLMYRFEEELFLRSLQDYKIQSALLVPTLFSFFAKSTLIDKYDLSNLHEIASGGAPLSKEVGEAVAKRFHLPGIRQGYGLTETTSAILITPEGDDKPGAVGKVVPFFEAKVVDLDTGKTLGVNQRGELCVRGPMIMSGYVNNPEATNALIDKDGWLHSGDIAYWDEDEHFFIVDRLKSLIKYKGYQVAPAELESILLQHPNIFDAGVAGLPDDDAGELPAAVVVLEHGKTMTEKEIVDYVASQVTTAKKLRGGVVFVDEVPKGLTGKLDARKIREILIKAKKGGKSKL
Potassium voltage-gated channel subfamily KQT member 2, sequence (O88943 whole entry): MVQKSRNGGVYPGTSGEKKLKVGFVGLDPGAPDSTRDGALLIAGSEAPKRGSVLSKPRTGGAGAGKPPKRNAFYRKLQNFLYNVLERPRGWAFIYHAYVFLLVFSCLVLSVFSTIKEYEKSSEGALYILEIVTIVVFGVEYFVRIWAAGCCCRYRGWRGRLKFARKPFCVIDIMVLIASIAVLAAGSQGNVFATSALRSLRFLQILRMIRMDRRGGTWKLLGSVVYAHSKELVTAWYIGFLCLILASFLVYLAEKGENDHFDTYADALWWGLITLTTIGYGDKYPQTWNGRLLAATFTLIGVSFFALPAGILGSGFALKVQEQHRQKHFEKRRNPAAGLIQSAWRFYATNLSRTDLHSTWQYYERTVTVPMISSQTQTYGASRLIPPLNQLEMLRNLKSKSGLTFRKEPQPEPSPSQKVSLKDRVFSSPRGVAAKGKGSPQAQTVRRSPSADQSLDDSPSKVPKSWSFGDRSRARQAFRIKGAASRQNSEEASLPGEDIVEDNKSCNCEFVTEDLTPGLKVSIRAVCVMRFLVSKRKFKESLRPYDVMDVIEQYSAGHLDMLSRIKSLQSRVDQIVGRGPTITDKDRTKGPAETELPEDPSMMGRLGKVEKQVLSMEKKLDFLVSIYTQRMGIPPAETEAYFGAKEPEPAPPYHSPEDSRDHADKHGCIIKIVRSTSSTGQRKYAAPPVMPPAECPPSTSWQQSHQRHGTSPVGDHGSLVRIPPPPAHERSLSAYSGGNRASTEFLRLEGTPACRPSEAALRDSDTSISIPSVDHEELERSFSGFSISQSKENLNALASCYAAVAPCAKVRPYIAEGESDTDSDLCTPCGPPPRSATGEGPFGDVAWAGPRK
Melanin-concentrating hormone receptor 1, sequence (Q99705 whole entry): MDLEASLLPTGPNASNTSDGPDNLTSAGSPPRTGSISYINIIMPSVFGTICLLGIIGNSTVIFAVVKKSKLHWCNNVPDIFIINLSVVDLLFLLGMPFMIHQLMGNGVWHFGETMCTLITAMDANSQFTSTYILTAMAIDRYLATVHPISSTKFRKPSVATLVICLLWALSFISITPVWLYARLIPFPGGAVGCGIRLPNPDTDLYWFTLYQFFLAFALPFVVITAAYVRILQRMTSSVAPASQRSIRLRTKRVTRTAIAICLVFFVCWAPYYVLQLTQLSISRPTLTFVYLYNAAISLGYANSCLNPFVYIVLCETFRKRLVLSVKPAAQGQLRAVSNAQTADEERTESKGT
Protein Wnt-3a, sequence (P27467 whole entry): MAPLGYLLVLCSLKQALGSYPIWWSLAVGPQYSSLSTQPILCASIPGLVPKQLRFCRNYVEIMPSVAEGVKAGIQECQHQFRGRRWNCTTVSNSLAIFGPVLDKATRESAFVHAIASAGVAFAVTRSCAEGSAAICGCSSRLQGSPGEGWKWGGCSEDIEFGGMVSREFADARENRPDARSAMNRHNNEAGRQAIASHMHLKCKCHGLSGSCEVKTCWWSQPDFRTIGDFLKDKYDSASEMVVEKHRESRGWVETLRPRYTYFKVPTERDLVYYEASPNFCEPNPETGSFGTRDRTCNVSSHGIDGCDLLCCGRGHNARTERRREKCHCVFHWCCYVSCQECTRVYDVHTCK

IC50 [1]: 8.64 µM (active)
IC50 [2]: 4.22 µM (active)
Compound: CCN1CCCC1CNC(=O)c1ccc2c(c1)N(Cc1cccc(Cl)c1)C(=O)c1ccccc1S2(=O)=O (stereo not drawn)

Compound: N=c1c2c(n(Cc3ccc(F)cc3)c3c1CCC3)CCCC2
EC50 [3]: 0.639 µM (active)
EC50 [4]: > 60 µM (not active)
IC50 (Protein Wnt-3a): 13.8 µM (active)

IC50 [5]: 3.11 µM (active)
Compound: CC1CCN(C(=O)Cn2c(=O)n(Cc3ccc4c(c3)OCO4)c(=O)c3ccccc32)CC1

Compound: CCNC(=O)[C@H]1O[C@@H](n2cnc3c(N)nc(NCCc4ccc(CCC(=O)O)cc4)nc32)[C@H](O)[C@@H]1O
EC50 [6]: > 112 µM (not active)
EC50 [7]: < 0.088 µM (active)
IC50 [1]: 0.915 µM (active)
IC50 [2]: 0.807 µM (active)

EC50 [8]: > 100 µM (inactive)
Compound: Cc1cc(NC(=O)C2CC(c3ccc(F)cc3)=NO2)n(-c2ccccc2)n1 (stereo not drawn)

Compound: COc1ccc(S(=O)(=O)N2c3ccccc3OCC2C)cc1 (stereo not drawn)
EC50 [9]: 13.9 µM (active)

Compound: C=CCOc1ccc(Br)cc1CNCCCN1CCOCC1
EC50 [9]: 14.2 µM (active)

IC50 [10]: 2.47 µM (active)
Compound: COc1ccc(Oc2c(Cl)cnn(Cc3cccc4ccccc34)c2=O)cc1F

IC50 (Caspase-3): > 99 µM (inactive)
IC50 [12]: > 99 µM (inactive)
IC50 [13]: > 99 µM (inactive)
Compound: COc1cc(C(=O)Nc2ccccc2F)ccc1OCc1ccc(Cl)cc1
IC50 [11]: > 99 µM (inactive)
